{"source": "patent US8748097B1", "about": "“Identification of agents for treating calcium disorders and uses thereof” (President and Fellows of Harvard College, priority 2011, dated 2014)", "key": {"[1]": {"system": "RANKL mRNA in ST-2 osteoblast cells", "protocol": "(§1) GFP positive cells were treated with a shRNA designed to target and disrupt GFP expression (transfection control), while wild-type cells were treated with one of two shRNA constructs (TBONE—1 and TBONE—2) designed to target and disrupt expression of Apr3."}, "RAW 264.7 macrophages [2]": {"system": "RAW 264.7 macrophages", "protocol": "as §1"}, "HDJ-2 prenylation": {"system": "HDJ-2 prenylation", "conditions": "indicated dose of Alendronate, 72 hours", "protocol": "(§2) FIG. 8. Effect of Nitrogenous Bisphosphonates on Prenylation. Cells containing (WT) or lacking C2orf28 (C2orf28_GT2) were treated with Alendronate at the indicated dose ((−) indicates no Alendronate). After 72 hours the cells were analyzed by immunoblotting for the indicated proteins.\n(§3) Therefore, to determine whether C2orf28 is involved with NBPs mediated protein prenylation, the inventors' monitored the prenylation of several known prenylated proteins including the heat shock protein DnaJ (Hsp40) homolog, HDJ-2, and the Ras family GTPase, Rapla. Cells containing or lacking C2orf28 were treated with the indicated dose of Alendronate for 72 hours then lysed and analyzed by immunoblotting for the indicated proteins.\n(§4) Cells were pelleted by centrifugation at 9,000 rpm for 30 seconds, rinsed once with ice-cold PBS and lysed with Triton-X 100 containing lysis buffer (40 mM HEPES [pH 7.4], 2 mM EDTA, 150 mM NaCl, 50 mM NaF, 1% Triton-X 100, and one tablet of EDTA-free protease inhibitors [Roche] per 25 ml). The soluble fractions of cell lysates were isolated by centrifugation at 13,000 rpm for 10 minutes in a microcentrifuge. Lysate protein concentrations were normalized by Bradford assay (Bio-Rad). Proteins were then denatured by the addition of sample buffer and by boiling for 5 minutes, resolved using 4%-20% SDS-PAGE (Invitrogen), and analyzed by immunoblotting."}, "Rapla prenylation": {"system": "Rapla prenylation", "conditions": "indicated dose of Alendronate, 72 hours", "protocol": "as §2, §3, §4"}, "KBM7 cells": {"system": "KBM7 cells", "protocol": "(§5) All measurements were performed in quadruplicate.\nas §5"}, "MC3T3-e1 cells": {"system": "MC3T3-e1 cells", "protocol": "FIG. 15. Basal and NBP-potentiated osteoblastic gene expression. shNA-mediated TBONE knockdown (TBONE—1 and TBONE—2) and transfection control (GFP) cells were treated with 10 nM Alendronte or vehicle and analyzed using real-time RT-PCR for mRNA expression of (A) TBONE, (B) osteocalcin (OC), and (C) bone sialoprotein (BSP).\nSince NBPs and calcium potentially play an important role in regulating osteoblast function, studies were performed to evaluate the role of TBONE in osteoblast differentiation. For the experiment, wild-type and GFP positive MC3T3-e1 cells were transiently transfected with small-hairpin RNA (shRNA). GFP positive cells were treated with a shRNA designed to target and disrupt GFP expression (transfection control), while wild-type cells were treated with one of two shRNA constructs (TBONE—1 and TBONE—2) designed to target and disrupt expression of Apr3. The cells were then subjected to conditions for promoting osteoblast differentiation, 50 μg/ml ascorbic acid and 10 mM B-glycerophosphate for 2 weeks, and analyzed for extracellular calcium deposition using Alizarin Red or phosphate deposition using the Von Kossa method.\n(§6) Briefly, GFP control and TBONE knockdown cells were generated and subjected to differentiation as described above. Following the two week incubation, cells were treated with 10 nM Alendronate (exemplary NBP) or vehicle and analyzed by real-time RT-PCR using TBONE, OC and BSP gene specific oligonucleotide primers (FIG. 15). Alkaline phosphatase activity was measured using a colorimetric based assay designed to indicate ALPL activity by changing color following the dephosphorylation of p-nitrophenyl phosphate (pNPP) (FIG. 16)."}, "[3]": {"system": "alkaline phosphatase (ALPL)", "conditions": "TBONE deficient cells vs GFP control; 10 nM Alendronate", "protocol": "as §6"}, "HEK-293T": {"system": "HEK-293T", "conditions": "HEK-293T with C2orf28 depletion using RNAi; data not shown"}, "[4]": {"system": "cells containing or lacking C2orf28", "conditions": "C2orf28 deficient vs C2orf28-complemented cells; 75 μM fluorophore conjugated H^3-labeled Alendronate plus 60 μM cold, 60 hours", "method": "The volume was made up to 1 ml with distilled water and the solution incubated for 2 hours at room temperature with mixing."}, "[5]": {"target": "HA tagged C2orf28 variant 2 (Homo sapiens, UniProt Q6UW56)", "sequence (Q6UW56 1-284 isoform Q6UW56-3)": "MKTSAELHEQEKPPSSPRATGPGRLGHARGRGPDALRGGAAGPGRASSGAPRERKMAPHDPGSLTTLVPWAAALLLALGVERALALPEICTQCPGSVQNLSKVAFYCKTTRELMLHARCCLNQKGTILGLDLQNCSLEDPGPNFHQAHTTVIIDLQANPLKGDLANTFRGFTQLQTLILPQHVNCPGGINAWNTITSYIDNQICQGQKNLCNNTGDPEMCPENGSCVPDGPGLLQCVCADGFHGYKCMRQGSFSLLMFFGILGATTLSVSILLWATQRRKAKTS", "conditions": "MC3T3-E1 pre-osteoblasts expressing HA tagged C2orf28 variant 2; 7504 fluorophore conjugated Alendronate", "method": "Sub-cellular Localization. […] Cells were processed in an immunofluorescence assay.\nFollowing incubation, the cells were washed, and processed in an immunofluorescence assay to detect HA and Alendronate, along with DAPI to visualize DNA content.\n25,000-100,000 cells were plated on fibronectin-coated glass coverslips, fixed with 4% paraformaldehyde, and permeabilized with 0.2% Triton X-100. Permeabilized cells were blocked in 0.25% BSA PBS, incubated with primary antibody in blocking buffer overnight at 4° C. and subsequently incubated with secondary antibodies (diluted in blocking buffer 1:1000) for one hour at room temperature. 2-4×PBS washes were used in between all preceding steps. The coverslips were mounted on glass slides using Vectashield containing DAPI (Vector Laboratories) and imaged with 63× objective using epifluorescence microscopy."}, "NFATc1 mRNA": {"system": "NFATc1 mRNA", "test": "A23187-induced NFATc1 expression", "format": "cell-based", "conditions": "C2orf28 deficient cells vs control; 1 μM A23187, 12 hours", "protocol": "FIG. 13. A23187-induced NFATc1 Expression. Control and C2orf28 deficient cells were treated for 12 hours with 1 μM A23187. After 12 hours, relative levels of NFATc1 mRNA expression were measured.\nTotal RNA was isolated and reverse-transcription was performed from cells grown in the indicated conditions. The resulting cDNA was diluted in DNase-free water (1:20) followed by quantification by real-time PCR. Data is expressed as the ratio between the expression of the target gene to the housekeeping gene, 18s. Each treated sample was normalized to the level of the vehicle controls of the same cell type. The following primers were used for quantitative real-time PCR: […]"}, "RAW 264.7 macrophages [6]": {"system": "RAW 264.7 macrophages", "test": "RANKL-mediated induction of TRAP activity in RAW 264.7 macrophages", "format": "cell-based", "conditions": "TBONE knockdown RAW 264.7 macrophages; 50 ng/ml RANKL, 5 days", "excerpt": "In order to determine if TBONE plays a role in directly regulating osteoclastogensis, TBONE was knockdown in macrophages to evaluate its potential effect on RANKL stimulated differentiation; by monitoring lineage specific surface marker expression of the calcitonin receptor (CALCR), a well-established indicator of osteoclast activity (J. Lam et al., (2000) J Clin Invest: 106, 1481; D. L. Lacey et al., (1998), Cell: 93, 165; and C. Minkin, (1982), Calcif Tissue Int: 34, 285; all of which are hereby incorporated by reference). Briefly, wild-type and GFP positive RAW 264.7 macrophages cells were transiently transfected with shRNA to knockdown GFP and Arp3 as described above. The cells were treated with 50 ng/ml RANKL for 5 days. […] Second, cells were analyzed for tartrate-resistant acid phosphatase (TRAP) activity."}, "[7]": {"conditions": "C2orf28 deficient cells (C2orf28_GT2)"}, "[8]": {"conditions": "TBONE deficient cells vs GFP control, 10 nM Alendronate"}}, "note": "Where two headings read alike, the source gives them in different places.", "data": [{"molecule": "Vitamin D", "values": [{"measurement": "RANKL mRNA induction by Vitamin D", "setting": "[1]; TBONE knockdown ST-2 cells (TBONE—1 and TBONE—2) vs GFP control, 100 nM Vitamin D", "value": "impaired RANKL mRNA induction"}, {"measurement": "Vitamin D stimulated osteoclastogenesis (TRAP activity)", "setting": "RAW 264.7 macrophages [2]; TBONE knockdown ST-2 cells co-cultured with RAW 264.7 macrophages, 100 nM Vitamin D", "value": "largely blocked"}]}, {"molecule": "NCCCC(O)(P(=O)(O)O)P(=O)(O)O", "note": "[Alendronate]", "values": [{"measurement": "HDJ-2 prenylation", "setting": "HDJ-2 prenylation; [7]", "value": "no effect"}, {"measurement": "HDJ-2 prenylation", "setting": "HDJ-2 prenylation; cells containing C2orf28 (WT)", "value": "impaired both HDJ-2 and Rapla prenylation in a dose dependent manner"}, {"measurement": "Rapla prenylation", "setting": "Rapla prenylation; [7]", "value": "no effect"}, {"measurement": "Rapla prenylation", "setting": "Rapla prenylation; cells containing C2orf28 (WT)", "value": "impaired both HDJ-2 and Rapla prenylation in a dose dependent manner"}, {"measurement": "Cell viability (cellular ATP, ratio to untreated cells)", "setting": "KBM7 cells; C2orf28_GT2 cells expressing C2orf28 variant 2 lacking the transmembrane domain, 0, 60 or 9004, 72 hours", "value": "resistant"}, {"measurement": "Cell viability (cellular ATP, ratio to untreated cells)", "setting": "KBM7 cells; C2orf28_GT2 cells expressing full-length C2orf28 variant 2, 0, 60 or 9004, 72 hours", "value": "sensitive"}, {"measurement": "Cell viability (cellular ATP, ratio to untreated cells)", "setting": "KBM7 cells; C2orf28 mutant cells with exogenous C2orf28 variant 2 or variant 3, 60 μM, 72 hours", "value": "as sensitive to Alendronate as wild-type KBM7 cells"}, {"measurement": "Relative TBONE mRNA expression", "setting": "MC3T3-e1 cells; GFP control cells, 10 nM Alendronate vs vehicle", "value": "increase in relative TBONE expression"}, {"measurement": "NBP-stimulated gene expression of bone sialoprotein (BSP)", "setting": "MC3T3-e1 cells; [8]", "value": "fail to demonstrate an increase in basal or NBP-stimulated gene expression"}, {"measurement": "NBP-stimulated gene expression of osteocalcin (OC)", "setting": "MC3T3-e1 cells; [8]", "value": "fail to demonstrate an increase in basal or NBP-stimulated gene expression"}, {"measurement": "NBP-stimulated induction of TBONE mRNA", "setting": "MC3T3-e1 cells; TBONE knockdown cells (TBONE—1 and TBONE—2), 10 nM Alendronate", "value": "fail to demonstrate a NBP-stimulated induction of TBONE"}, {"measurement": "NBP-stimulated ALPL (alkaline phosphatase activity)", "setting": "[3]", "value": "fail to demonstrate an increase in basal or NBP-stimulated gene expression"}, {"measurement": "RANKL mRNA induction by Vitamin D", "setting": "[1]; wild-type ST-2 cells, 100 nM Vitamin D plus increasing concentration of Alendronate, vs control", "value": "impaired RANKL mRNA induction by Vitamin D, in a dose dependent fashion"}, {"measurement": "Vitamin D stimulated osteoclastogenesis (TRAP activity)", "setting": "RAW 264.7 macrophages [2]; ST-2 cells treated with 100 nM Vitamin D and Alendronate, co-cultured with RAW 264.7 macrophages", "value": "reduced TRAP activity"}, {"measurement": "Anti-proliferative effects", "setting": "HEK-293T", "value": "strong resistance"}, {"measurement": "Cellular Alendronate accumulation", "setting": "[4]", "value": "altered cellular Alendronate accumulation"}, {"measurement": "Colocalization of Alendronate and C2orf28 co-staining", "setting": "[5]", "value": "high degree of colocalization"}]}, {"molecule": "CNc1ccc2oc(C[C@H]3O[C@@]4(CC[C@H]3C)O[C@H]([C@H](C)C(=O)c3ccc[nH]3)[C@H](C)C[C@H]4C)nc2c1C(=O)O", "note": "[A23187]", "values": [{"measurement": "A23187-induced NFATc1 gene expression", "setting": "NFATc1 mRNA", "value": "defective"}]}, {"molecule": "RANKL: regulatory molecule stimulating osteoclast differentiation and function (protein, UniProt O14788 140-317, looked up) Tumor necrosis factor ligand …: IRAEKAMVDGSWLDLAKRSKLEAQPFAHLTINATDIPSGSHKVSLSSWYHDRGWAKISNMTFSNGKLIVNQDGFYYLYANICFRHHETSGDLATEYLQLMVYVTKTSIKIPSSHTLMKGGSTKYWSGNSEFHFYSINVGGFFKLRSGEEISIEVSNPSLLDPDQDATYFGAFKVRDID", "values": [{"measurement": "RANKL-mediated TRAP activity", "setting": "RAW 264.7 macrophages [6]", "value": "strongly impairs"}]}]}
